Measurements reported in PubChem BioAssay AID2060907 (Molecular Pharmacology Branch, DTP, NCI, 2025).

Tested on: 388556-164-R-J1-PDC complex spheroid viability
Experiment: Anticancer human tumor 388556-164-R-J1-PDC patient-derived colon adenocarcinoma cell line growth inhibition [RAS]
Conditions: for IC50: curve of first compound; for viability, T/C: stronger effect = lower value
From the text: RAS pathway inhibitors in Combinations in Complex Spheroids
A high-throughput screen of multi-cell type tumor spheroids was designed to identify active combinations of RAS pathway inhibitors and targeted small molecules. Complex spheroids include a stromal component modeled by human endothelial cells (HUVEC) and fibroblasts modeled by human mesenchymal stem cells (MSCs). The concentration ranges selected for each drug and investigational agent were based upon clinically achievable concentrations if the clinical Cmax of the agent was known.
Compounds. The drugs and investigational agents: abemaciclib (NSC768073), cobimetinib (NSC768068), divarasib (GDC6063, NSC841802), docetaxel (NSC628503), GDC-1971 (RLY-1971, NSC841576), gemcitabine (NSC613327), inavolisib (NSC800729), ipatasertib (NSC767898), KB-0742 (NSC834161), MRTX-1133 (NSC836407), osimertinib (NSC779217), RMC-4630 (NSC839698), RMC-6236 (NSC851965), RMC-6291 (NSC852671), Ro-3306 (NSC812927), sapanisertib (NSC764658), SN-38 (NSC673596), staurosporine (NSC755774), SY5609 (NSC837396), and tovorafenib (DAY101, NSC766906), were obtained from the National Cancer Institute (NCI) Developmental Therapeutics Program Chemical Repository. The FDA-approved anticancer drug set is available from the NCI Developmental Therapeutics Program. […] The stock solutions were prepared in dimethyl sulfoxide (DMSO, Sigma-Aldrich, St. Louis, MO, cat. D2650) at 800-fold the tested concentration and stored at -70 degrees C prior to their use. All drugs and investigational agents were tested over a range starting from a high concentration at or near the clinical Cmax and decreasing in half-log increments. If the clinical Cmax for an agent had not been determined, the highest concentration tested was 10 microM.
Cell Culture. All cells were maintained in an incubator at 37 degrees C and 5% CO2 with 95% humidity. The PDC lines were cultured according to standard operating procedures established by the NCI PDMR. All PDCs were thawed and cultured in Matrigel-coated flasks prepared with a working solution of 1X Ham's F-12 nutrient mix, without supplementation (Invitrogen, Waltham, MA, cat. 11765054), 100 U/mL penicillin-streptomycin (Invitrogen, cat. 15140122), and 2.5% Matrigel (Corning Inc., Corning, NY, cat. 354248) for the first three passages. The 362531-283-R-J2-PDC and 782815-120-R-J1-PDC lines were cultured in 6C/Colon 1B media, which includes advanced DMEM/F-12 (Thermo Fisher Scientific, cat. 12634028), 10 mM HEPES (Thermo Fisher Scientific, cat. 15630080), 1X GlutaMAX supplement (Thermo Fisher Scientific, cat. 35050061), 0.1 mg/mL primocin (InvivoGen, San Diego, CA, cat. ant-pm-2), 10% defined fetal bovine serum, heat inactivated (HyClone Laboratories Inc., Logan, UT, cat. SH30070.03HI), 50% L-WRN conditioned media (ATCC, cat. CRL-3276), 1.25 mM N-Acetyl-L-cysteine (Sigma-Aldrich, cat. A9165), 10 mM nicotinamide (Sigma-Aldrich, cat. N0636), 1X B-27 supplement (Thermo Fisher Scientific, cat. 17504044), 1X N-2 supplement (Thermo Fisher Scientific, cat. 17502048), 50 ng/mL human EGF (Thermo Fisher Scientific, cat. PHG0311), and 10 microM Y-27632 dihydrochloride (Tocris Bioscience, cat. 1254). The K12877-001-R-J1-PDC line was cultured in 6I media, which includes all 6C/Colon 1B media plus 10 ng/mL human FGF-10 (PeproTech, cat. 100-26), 1 ng/mL human FGF-2 (PeproTech, cat. 100-18B), 1 µM prostaglandin E2 (Tocris Bioscience, cat. 2296), […] hydrocortisone (Sigma-Aldrich, cat. H4001), and […] bovine insulin (Sigma-Aldrich, cat. I6634). The K86415-001-R-J1-PDC line was cultured in 6D media, which includes all 6C/Colon 1B media components minus the L-WRN conditioned media. The 485176-168-R4-J1-PDC was cultured in PANC media, which includes all 6C/Colon 1B media plus 100 ng/mL human FGF-10 (PeproTech, cat. 100-26), 500 nM SB-431542 (Selleckchem, cat. S1067), and 10 nM gastrin (Tocris Bioscience, cat. 3006). […]

[1] = second compound 0.0316 µM, first compound 0.0316 µM
[2] = second compound 0.0316 µM, first compound 0.1 µM
[3] = second compound 0.0316 µM, first compound 0.316 µM
[4] = second compound 0.0316 µM, first compound 1 µM
[5] = second compound 0.0316 µM, first compound 3.16 µM
[6] = second compound 0.0316 µM, first compound 10 µM
[7] = second compound 0.1 µM, first compound 0.0316 µM
[8] = second compound 0.1 µM, first compound 0.1 µM
[9] = second compound 0.1 µM, first compound 0.316 µM
[10] = second compound 0.1 µM, first compound 1 µM
[11] = second compound 0.1 µM, first compound 3.16 µM
[12] = second compound 0.1 µM, first compound 10 µM
[13] = second compound 0.316 µM, first compound 0.0316 µM
[14] = second compound 0.316 µM, first compound 0.1 µM
[15] = second compound 0.316 µM, first compound 0.316 µM
[16] = second compound 0.316 µM, first compound 1 µM
[17] = second compound 0.316 µM, first compound 3.16 µM
[18] = second compound 0.316 µM, first compound 10 µM
[19] = second compound 1 µM, first compound 0.0316 µM
[20] = second compound 1 µM, first compound 0.1 µM
[21] = second compound 1 µM, first compound 0.316 µM
[22] = second compound 1 µM, first compound 1 µM
[23] = second compound 1 µM, first compound 3.16 µM
[24] = second compound 1 µM, first compound 10 µM
[25] = second compound 3.16 µM, first compound 0.0316 µM
[26] = second compound 3.16 µM, first compound 0.1 µM
[27] = second compound 3.16 µM, first compound 0.316 µM
[28] = second compound 3.16 µM, first compound 1 µM
[29] = second compound 3.16 µM, first compound 3.16 µM
[30] = second compound 3.16 µM, first compound 10 µM
[31] = second compound 10 µM, first compound 0.0316 µM
[32] = second compound 10 µM, first compound 0.1 µM
[33] = second compound 10 µM, first compound 0.316 µM
[34] = second compound 10 µM, first compound 1 µM
[35] = second compound 10 µM, first compound 3.16 µM
[36] = second compound 10 µM, first compound 10 µM
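Further: spheroids exposed to compound for 7 days before readout.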
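Wherever viability, T/C is given: 100% = DMSO vehicle control luminescence.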

CCC(CC)c1cc(NC2CCC(N)C2)n2nccc2n1 (stereo unspecified) + C#Cc1c(F)ccc2cc(O)cc(-c3ncc4c(N5CC6CCC(C5)N6)nc(OCC56CCCN5CC(F)C6)nc4c3F)c12
IC50 (second compound 0.0316 µM): 3290 nM
IC50 (second compound 0.1 µM): 2310 nM
IC50 (second compound 0.316 µM): 2580 nM
IC50 (second compound 1 µM): 2490 nM
IC50 (second compound 3.16 µM): 1930 nM
IC50 (second compound 10 µM): 1320 nM
viability, T/C [1]: 98.2%
viability, T/C [2]: 97.2%
viability, T/C [3]: 109%
viability, T/C [4]: 101%
viability, T/C [5]: 50.7%
viability, T/C [6]: 32.1%
viability, T/C [7]: 98.2%
viability, T/C [8]: 99.1%
viability, T/C [9]: 102%
viability, T/C [10]: 94.7%
viability, T/C [11]: 33.4%
viability, T/C [12]: 30.8%
viability, T/C [13]: 102%
viability, T/C [14]: 98%
viability, T/C [15]: 83.1%
viability, T/C [16]: 96.7%
viability, T/C [17]: 40.3%
viability, T/C [18]: 27.3%
viability, T/C [19]: 82.5%
viability, T/C [20]: 83.3%
viability, T/C [21]: 68.8%
viability, T/C [22]: 86.8%
viability, T/C [23]: 42%
viability, T/C [24]: 24.2%
viability, T/C [25]: 73.9%
viability, T/C [26]: 69.7%
viability, T/C [27]: 66.3%
viability, T/C [28]: 78.8%
viability, T/C [29]: 33.2%
viability, T/C [30]: 20.8%
viability, T/C [31]: 64.1%
viability, T/C [32]: 65.6%
viability, T/C [33]: 66.4%
viability, T/C [34]: 60.4%
viability, T/C [35]: 16.9%
viability, T/C [36]: 15.5%

Cc1nc(N2CCC3(CC2)COC(C)C3N)c(CO)nc1Sc1ccnc(N)c1Cl (stereo unspecified) + C#Cc1c(F)ccc2cc(O)cc(-c3ncc4c(N5CC6CCC(C5)N6)nc(OCC56CCCN5CC(F)C6)nc4c3F)c12
IC50 (second compound 0.0316 µM): 2290 nM
IC50 (second compound 0.1 µM): 2350 nM
IC50 (second compound 0.316 µM): 827 nM
IC50 (second compound 1 µM): 921 nM
IC50 (second compound 3.16 µM): 400 nM
IC50 (second compound 10 µM): 95.9 nM
viability, T/C [1]: 92%
viability, T/C [2]: 85.2%
viability, T/C [3]: 79.8%
viability, T/C [4]: 55.2%
viability, T/C [5]: 51%
viability, T/C [6]: 42.3%
viability, T/C [7]: 98.4%
viability, T/C [8]: 89.7%
viability, T/C [9]: 71.8%
viability, T/C [10]: 62.5%
viability, T/C [11]: 45%
viability, T/C [12]: 36.9%
viability, T/C [13]: 89.2%
viability, T/C [14]: 81.4%
viability, T/C [15]: 47.3%
viability, T/C [16]: 51.8%
viability, T/C [17]: 45.2%
viability, T/C [18]: 28.8%
viability, T/C [19]: 80%
viability, T/C [20]: 70.5%
viability, T/C [21]: 58.9%
viability, T/C [22]: 49.1%
viability, T/C [23]: 39.4%
viability, T/C [24]: 26.2%
viability, T/C [25]: 66.1%
viability, T/C [26]: 50.8%
viability, T/C [27]: 54.3%
viability, T/C [28]: 46.6%
viability, T/C [29]: 33.6%
viability, T/C [30]: 24%
viability, T/C [31]: 61.1%
viability, T/C [32]: 45.5%
viability, T/C [33]: 44%
viability, T/C [34]: 32.1%
viability, T/C [35]: 22%
viability, T/C [36]: 21.3%

NC1c2ccccc2OC12CCN(c1cnc3c(N4CCCc5ncccc54)n[nH]c3n1)CC2 (stereo unspecified) + C#Cc1c(F)ccc2cc(O)cc(-c3ncc4c(N5CC6CCC(C5)N6)nc(OCC56CCCN5CC(F)C6)nc4c3F)c12
IC50 (second compound 0.0316 µM): 363 nM
IC50 (second compound 0.1 µM): 149 nM
IC50 (second compound 0.316 µM): 157 nM
IC50 (second compound 1 µM): 84.6 nM
IC50 (second compound 3.16 µM): < 31.6 nM
IC50 (second compound 10 µM): < 31.6 nM
viability, T/C [1]: 58.8%
viability, T/C [2]: 59.1%
viability, T/C [3]: 50.1%
viability, T/C [4]: 41.8%
viability, T/C [5]: 35.2%
viability, T/C [6]: 31.3%
viability, T/C [7]: 65.7%
viability, T/C [8]: 55.6%
viability, T/C [9]: 43.8%
viability, T/C [10]: 32.5%
viability, T/C [11]: 36.8%
viability, T/C [12]: 28.4%
viability, T/C [13]: 63.6%
viability, T/C [14]: 58.2%
viability, T/C [15]: 38.2%
viability, T/C [16]: 33%
viability, T/C [17]: 26.6%
viability, T/C [18]: 21%
viability, T/C [19]: 54.3%
viability, T/C [20]: 49.7%
viability, T/C [21]: 32%
viability, T/C [22]: 27.2%
viability, T/C [23]: 27.7%
viability, T/C [24]: 20.2%
viability, T/C [25]: 51.2%
viability, T/C [26]: 35.9%
viability, T/C [27]: 35%
viability, T/C [28]: 29.3%
viability, T/C [29]: 26.6%
viability, T/C [30]: 18.8%
viability, T/C [31]: 39%
viability, T/C [32]: 31%
viability, T/C [33]: 24.1%
viability, T/C [34]: 23.9%
viability, T/C [35]: 18.6%
viability, T/C [36]: 16.9%
